Reference: PubChem BioAssay AID1645871

Conditions: pampa; pH 5.0; 30.0 min; 50.0 µM

Papp [×10⁻⁶ cm/s]	Compound
616	O=C(Cc1ccc(O)cc1)N1CC(CNc2ccccc2)C2(C1)CN(c1ccccc1)C2 (stereo not drawn)
663	O=C1CCc2cc(S(=O)(=O)Nc3ccc(F)c(Cl)c3)ccc2N1
> 1000	Cc1ccccc1-c1nc(NCc2ccc(-c3cccnc3)cc2)c2ccccc2n1
293	COc1ccc(C)cc1Nc1c2c(nc3ccccc13)CCC2
350	CN(C)C(=O)NC1CCC(CCN2CCN(c3cccc(Cl)c3Cl)CC2)CC1 (stereo not drawn)
> 1000	Nc1c(S(=O)(=O)c2cccs2)c2nc3ccccc3nc2n1Cc1ccccc1
238	COc1ccc(C(=O)NC2CCCc3c2[nH]c2ccccc32)cc1OC (stereo not drawn)
118	Cc1nn2c(c1-c1ccccc1-c1ccccc1)N(Cc1ccc(O)cc1)CCC2
742	Clc1cccc(COc2cncc(N3CCNCC3)n2)c1
97.3	COc1cc2c(Nc3ccc(Br)cc3F)ncnc2cc1OCC1CCN(C)CC1
243	COc1cc2cc(CN3CCC(N(C)C)C3)c(-c3cccc(Cl)c3)nc2cc1OC (stereo not drawn)
90.2	CCc1cccc(NC(=O)c2cc(-c3ccc[nH]3)n[nH]2)c1
> 1000	c1cn2cc(-c3ccc4cn[nH]c4c3)nc(Nc3ccc(N4CCOCC4)cc3)c2n1
96.2	NC(=O)N1CCCC(C(=O)N2CCCN(c3ccc(F)cc3)CC2)C1 (stereo not drawn)
635	O=C(C1CC(=O)N(c2n[nH]c3ccccc23)C1)N1CCC(c2noc3cc(F)ccc23)CC1 (stereo not drawn)
431	COc1ccc(-n2nc(C3CCCN(C(=O)c4cccc(OC)c4)C3)[nH]c2=O)cc1 (stereo not drawn)
191	NC(=O)C1CCN(c2nccc(-c3ccc4c(c3)OCCO4)n2)CC1
308	COc1ccc(-n2nc(C3CCN([S+](=O)([O-])c4c(C)noc4C)CC3)[nH]c2=O)cc1
400	O=C(O)c1ccc(-c2c[nH]c3ncc(-c4ccccc4)cc23)cc1C1CCCC1
7.56	NC1CCN(C(=O)C2CCCN(c3nc(-c4ccccc4)nc4c3CCC4)C2)CC1 (stereo not drawn)
> 1000	CCOc1cc(-c2nccc3cc(OC)c(OC)cc23)cc(OCC)c1OCC
> 1000	CCOc1ccc(N2CC(c3nc(-c4cc(OC)c(OC)c(OC)c4)no3)CC2=O)cc1 (stereo not drawn)
351	CCc1cccc(NC(=O)CSc2nc3ccccc3nc2N2CCCCC2)c1
170	CCOc1ccc(C2C(C(=O)Nc3ccccc3OC)=C(C)Nc3c(C(=O)Nc4cccc(C)c4)cnn32)cc1 (stereo not drawn)
24.9	CN(C)[C@@H]1CCN(c2cccc(Nc3nn4c(=O)c5ccccc5nc4s3)c2)C1
585	O=C(CSc1nc(-c2ccc(F)cc2)[nH]c1-c1ccc(F)cc1)Nc1ccc2c(c1)OCCO2
81.8	COc1ccc(-c2ccc3ncc(Nc4ccc(C(N)=O)cc4)n3n2)cc1OC

More lines, now with the values behind:

Compound	Papp [×10⁻⁶ cm/s]
COc1cccc(C(=O)Nc2ccc3oc(-c4ccc5ccccc5c4)nc3c2)c1	756
CC(C)(C)CN1CCNc2cc(Nc3ccccc3)ncc2C1	42.2
CNc1nc2c(s1)C(c1ccccc1F)CC(=O)N2 (stereo not drawn)	60.3
O=C(Nc1cccc(OC(F)(F)F)c1)c1cc(-c2ccc[nH]2)n[nH]1	103
Cc1cc(-c2ccc(C)c(S(=O)(=O)NCC3CCN(Cc4ccc(F)cc4)CC3)c2)on1	486
COc1cc(Cl)c(C)cc1NS(=O)(=O)c1c(C)nc2sccn2c1=O	802
Cc1c(CN(C)c2cc(C3CC(O)C3)nc(N)n2)[nH]c2ccccc12 (stereo not drawn)	44.8
CC(=O)Nc1ccc(NC(=O)C(NS(=O)(=O)c2ccc(Br)s2)c2ccccc2)cc1 (stereo not drawn)	16.2
CN1CCN(C(=O)Cc2c[nH]c3ncc(-c4ccccc4Oc4ccccc4)cc23)CC1	578
COc1ccc(NC(=O)c2cc(-c3ccc[nH]3)n[nH]2)cc1OC	203
CNc1nc2c(s1)C(c1ccc(Cl)cc1)CC(=O)N2 (stereo not drawn)	204
O=C1Nc2ccc(-c3cccc(C(F)(F)F)c3)cc2C(=O)N2CCN(C(=O)COc3ccccc3)C[C@H]12	859
CCOc1ccc(C2c3c(oc4ccc(C)cc4c3=O)C(=O)N2CCCN(C)C)cc1 (stereo not drawn)	29.6
COc1ccc(-n2nc(C3CCCN(C(=O)Nc4ccccc4)C3)[nH]c2=O)cc1 (stereo not drawn)	315
C=Cc1ccc(Cn2c(C(=O)O)c(CNC3CCCCC3)c3ccc(OC)cc32)cc1	702
CCOc1ccc(CCNC(=O)c2cc3ccccc3n2C)cc1OCC	> 1000

Compound	Papp [×10⁻⁶ cm/s]
CN(C)CC[C@@H](c1ccc(Cl)cc1)c1ccccn1	82.5
Cc1ccnc(NC(=S)N2CCN(c3ccc(N)cc3)CC2)c1	4.13
COc1ccc(-n2nc(C3CCN(C(=O)c4ccccc4)CC3)[nH]c2=O)cc1	250
CC(NCc1ccc2c(c1)nc(NC(=O)c1ccc(-c3cn[nH]c3)s1)n2CC(C)(C)O)C(C)(C)C (stereo not drawn)	4.16
Nc1c(C(=O)Nc2ccc(Cl)cc2)sc2nc3c(cc12)N1CCC3CC1	140
COc1ccc(CCNC(=O)Cn2c(=O)c3cccn3c3ccc(F)cc32)cc1OC	317
CCN(CC)CCCC(C)Nc1cc(/C=C/c2ccccc2Cl)nc2cc(Cl)ccc12 (stereo not drawn)	82.9
COC[C@@H]1CN(C(=O)c2nn(C)c3ccccc23)C[C@H]1c1nc(C)no1	65.3
CCc1ccc(OC(C)C(=O)N2CCC(c3nc4ccccc4o3)CC2)cc1 (stereo not drawn)	> 1000
Cc1ccc(-c2c(CN3CCN(c4cccc(C(F)(F)F)c4)CC3)csc2C)cc1	35
CCC(CC)C(=O)NC[C@@H]1C=C(C)[C@H](Cc2nc3c(C)cccc3[nH]2)C[C@H]1C(C)C	> 1000
COc1ccc(Cn2c(C(=O)O)c(CNCc3cccc(OC)c3)c3ccc(C)cc32)cc1	931
Cc1cccc(N(C)c2nc3ccccc3c3nnc(C)n23)c1	> 1000
CCC(CC)c1cc([C@H]2CN3CC[C@H]2C[C@@H]3CNC(=O)COc2ccccc2)nc(-c2ccncc2)n1	374
S=c1[nH]c2ccccc2n1CCc1ccccc1	903
